The source made the active and inactive calls. No cut-off for these calls is given here.
Key:
[1] = biological target: T1, 5-hydroxytryptamine receptor 1A (Homo sapiens, UniProt P08908); experiment: Displacement of [3H]-8-OH-DPAT from human 5-HT1A receptor expressed in HEK293 cells; type: cell-based
T1 sequence (P08908 whole entry): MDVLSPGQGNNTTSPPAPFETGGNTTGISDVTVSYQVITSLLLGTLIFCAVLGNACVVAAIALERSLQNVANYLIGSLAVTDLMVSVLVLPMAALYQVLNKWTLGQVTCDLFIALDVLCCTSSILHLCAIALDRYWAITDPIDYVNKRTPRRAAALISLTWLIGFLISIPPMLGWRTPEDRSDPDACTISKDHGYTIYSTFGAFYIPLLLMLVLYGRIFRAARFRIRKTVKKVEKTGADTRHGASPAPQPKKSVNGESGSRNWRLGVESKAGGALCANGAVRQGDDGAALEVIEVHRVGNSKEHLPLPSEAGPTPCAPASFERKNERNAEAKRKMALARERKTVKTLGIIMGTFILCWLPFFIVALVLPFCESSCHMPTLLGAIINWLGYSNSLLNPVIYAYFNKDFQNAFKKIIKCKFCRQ

D(2) dopamine receptor = D(2) dopamine receptor (Homo sapiens, UniProt P14416); experiment: Displacement of [3H]-Raclopride from human dopamine D2L receptor expressed in HEK293 cells; type: cell-based
[2] = biological target: T2, 5-hydroxytryptamine receptor 7 (Homo sapiens, UniProt P34969); experiment: Displacement of [3H]-5-CT from human 5-HT7 receptor expressed in HEK293 cells; type: cell-based
Homo sapiens [3] = species: Homo sapiens; experiment: Selectivity ratio of Ki for human dopamine D2L receptor to Ki for human 5-HT7 receptor
Homo sapiens [4] = species: Homo sapiens; experiment: Selectivity ratio of Ki for human 5-HT1A receptor to Ki for human 5-HT7 receptor
[5] = biological target: T2, 5-hydroxytryptamine receptor 7; experiment: Agonist activity at human 5-HT7 receptor expressed in HEK293 cells assessed as increase in cAMP level at 10 uM after 15 mins by HTRF assay; type: functional, cell-based
[6] = biological target: T2, 5-hydroxytryptamine receptor 7; type: functional, cell-based, HEK293
[7] = biological target: T2, 5-hydroxytryptamine receptor 7; experiment: Antagonist activity at human 5-HT7 receptor expressed in HEK293 cells assessed as inhibition of 5-CT-induced cAMP production at 10 uM preincubated for 15 mins followed by 5-CT addition measured after 15 mins by HTRF assay; type: functional, cell-based
CYP3A4 = CYP3A4 (Homo sapiens, UniProt P08684); experiment: Inhibition of recombinant human CYP3A4 assessed as remaining activity at 25 uM by luminescence -based microplate reader assay; type: ADME; details: read-out: Activity
Liver microsome [8] = experiment: Drug level in recombinant human liver microsomes treated with 5-(4-fluorophenyl)-3-(2-hydroxy-3-(4-(2-methoxyphenyl)piperazin-1-yl)propyl)-5-methylimidazolidine-2,4-dione at 50 uM after 120 mins by UPLC-MS/MS analysis; type: ADME; details: 2 h
Liver microsome [9] = experiment: Retention time of the compound in recombinant human liver microsomes treated with 5-(4-fluorophenyl)-3-(2-hydroxy-3-(4-(2-methoxyphenyl)piperazin-1-yl)propyl)-5-methylimidazolidine-2,4-dione at 50 uM after 120 mins by UPLC-MS/MS analysis; type: ADME; details: 2 h

Chain of D(2) dopamine receptor (P14416 whole entry): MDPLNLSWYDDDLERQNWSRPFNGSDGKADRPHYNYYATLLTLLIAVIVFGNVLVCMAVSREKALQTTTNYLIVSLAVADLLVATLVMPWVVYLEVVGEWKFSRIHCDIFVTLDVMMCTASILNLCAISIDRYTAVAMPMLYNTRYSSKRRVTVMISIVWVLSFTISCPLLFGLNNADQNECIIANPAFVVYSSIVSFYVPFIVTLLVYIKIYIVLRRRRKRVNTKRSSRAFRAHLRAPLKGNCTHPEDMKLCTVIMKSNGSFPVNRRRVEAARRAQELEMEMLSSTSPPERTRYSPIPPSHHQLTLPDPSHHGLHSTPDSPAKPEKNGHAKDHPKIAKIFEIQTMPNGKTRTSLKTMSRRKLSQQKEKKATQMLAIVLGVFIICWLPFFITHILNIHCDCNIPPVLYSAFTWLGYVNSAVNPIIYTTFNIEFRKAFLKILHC
T2 sequence (P34969 whole entry): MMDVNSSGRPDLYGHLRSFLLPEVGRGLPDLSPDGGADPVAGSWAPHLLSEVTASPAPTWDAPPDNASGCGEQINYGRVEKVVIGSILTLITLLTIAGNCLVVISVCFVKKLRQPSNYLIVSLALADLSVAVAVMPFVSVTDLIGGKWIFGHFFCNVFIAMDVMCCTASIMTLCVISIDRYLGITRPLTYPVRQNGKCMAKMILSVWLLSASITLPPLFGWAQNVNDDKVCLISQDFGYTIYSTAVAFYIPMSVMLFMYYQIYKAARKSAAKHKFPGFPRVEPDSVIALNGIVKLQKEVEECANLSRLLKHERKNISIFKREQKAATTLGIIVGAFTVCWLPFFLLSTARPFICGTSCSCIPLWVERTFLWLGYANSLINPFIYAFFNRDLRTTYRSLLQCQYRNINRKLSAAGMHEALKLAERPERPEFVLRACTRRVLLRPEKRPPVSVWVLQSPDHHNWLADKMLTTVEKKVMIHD
Chain of CYP3A4 (P08684 whole entry): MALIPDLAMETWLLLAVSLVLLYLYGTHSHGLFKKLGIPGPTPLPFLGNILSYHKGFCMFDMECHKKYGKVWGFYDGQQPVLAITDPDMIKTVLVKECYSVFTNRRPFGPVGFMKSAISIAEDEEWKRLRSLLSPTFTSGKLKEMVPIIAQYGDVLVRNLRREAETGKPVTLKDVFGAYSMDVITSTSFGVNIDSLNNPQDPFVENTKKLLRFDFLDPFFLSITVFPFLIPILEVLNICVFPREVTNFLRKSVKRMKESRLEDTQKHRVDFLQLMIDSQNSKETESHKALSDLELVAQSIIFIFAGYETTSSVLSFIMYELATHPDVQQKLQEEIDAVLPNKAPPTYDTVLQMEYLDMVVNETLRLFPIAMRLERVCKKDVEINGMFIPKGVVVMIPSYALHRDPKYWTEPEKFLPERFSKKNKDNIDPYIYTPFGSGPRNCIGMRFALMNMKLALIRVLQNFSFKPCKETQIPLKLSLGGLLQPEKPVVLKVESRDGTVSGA

Ki [1] [nM] | Ki (D(2) dopamine receptor) [nM] | Ki [2] [nM] | Ratio Ki (Homo sapiens [3]) | Ratio Ki (Homo sapiens [4]) | Activity [5] | IC50 [6] [nM] | inhibition [7] [%] | activity at 25 µM (CYP3A4) [%] | Drug metabolism (Liver microsome [8]) | Retention_time (Liver microsome [9]) [min] | Compound
319 | 931 | 14 | 67 | 23 | inactive | 343 |  |  |  |  | CC1(c2ccc(F)cc2)NC(=O)N(CC(O)CN2CCN(c3ccccc3C#N)CC2)C1=O (centres undefined)
5300 | 4260 | 908 | 5 | 6 | inactive |  | 16 |  |  |  | CC1(c2ccc(F)cc2)NC(=O)N(CC(O)CN2CCN(c3ccc(Cl)cc3)CC2)C1=O (centres undefined)
9170 | 6790 | 1190 | 4 | 8 | inactive |  | 9 |  |  |  | CC1(c2ccc(F)cc2)NC(=O)N(CC(O)CN2CCN(c3ccc(F)cc3F)CC2)C1=O (centres undefined)
1650 | 1710 | 234 | 7 | 7 | inactive |  | 6 |  |  |  | CC1(c2ccc(F)cc2)NC(=O)N(CC(O)CN2CCN(c3ccccc3F)CC2)C1=O (centres undefined)
 |  |  |  |  |  |  |  | 50 |  |  | COc1ccccc1N1CCN(CC(O)CN2C(=O)NC(C)(c3ccc(F)cc3)C2=O)CC1 (centres undefined)
397 | 839 | 47 | 18 | 8 | inactive |  | 30 |  |  |  | CC1(c2ccc(F)cc2)NC(=O)N(CC(O)CN2CCN(c3ccccc3Cl)CC2)C1=O (centres undefined)
2970 | 5190 | 89 | 58 | 33 | inactive | 5940 |  |  |  |  | COc1cccc(N2CCN(CC(O)CN3C(=O)NC(C)(c4ccc(F)cc4)C3=O)CC2)c1 (centres undefined)
 |  |  | 3 | 71 | inactive | 1810 |  |  |  |  | CC1(c2ccc(F)cc2)NC(=O)N(CC(O)CN2CCN(C(c3ccccc3)c3ccccc3)CC2)C1=O (centres undefined)
6860 | 5640 | 837 | 7 | 8 | inactive |  | 12 |  |  |  | CC1(c2ccc(F)cc2)NC(=O)N(CC(O)CN2CCN(c3ccc(F)cc3)CC2)C1=O (centres undefined)
821 | 1980 | 141 | 14 | 6 | inactive | 24000 |  |  |  |  | CC1(c2ccc(F)cc2)NC(=O)N(CC(O)CN2CCN(c3ccc(Cl)c(Cl)c3)CC2)C1=O (centres undefined)
 |  |  |  |  |  |  |  |  | metabolite_detected | 3.77 | CC1(c2ccc(F)cc2)NC(=O)N(CC(O)CN2CCN(c3ccccc3O)CC2)C1=O (centres undefined)
1300 | 1810 | 56 | 32 | 23 | inactive | 1010 |  |  |  |  | Cc1ccc(C)c(N2CCN(CC(O)CN3C(=O)NC(C)(c4ccc(F)cc4)C3=O)CC2)c1 (centres undefined)
2730 | 2910 | 223 | 13 | 12 | inactive |  | 18 |  |  |  | CC1(c2ccc(F)cc2)NC(=O)N(CC(O)CN2CCN(c3ccccc3)CC2)C1=O (centres undefined)
98 | 127 | 10 | 13 | 10 | inactive | 81 |  |  |  |  | CCOc1ccccc1N1CCN(CC(O)CN2C(=O)NC(C)(c3ccc(F)cc3)C2=O)CC1 (centres undefined)
1000 | 2260 | 177 | 13 | 6 | inactive |  | 19 |  |  |  | Cc1ccc(N2CCN(CC(O)CN3C(=O)NC(C)(c4ccc(F)cc4)C3=O)CC2)cc1C (centres undefined)
59 | 302 | 17 | 18 | 3 | inactive | 1390 |  |  |  |  | CC1(c2ccc(F)cc2)NC(=O)N(CC(O)CN2CCN(c3cccc(Cl)c3Cl)CC2)C1=O (centres undefined)

Compound | Ki [1] [nM] | Ki (D(2) dopamine receptor) [nM] | Ki [2] [nM] | Ratio Ki (Homo sapiens [3]) | Ratio Ki (Homo sapiens [4]) | Activity [5] | IC50 [6] [nM] | inhibition [7] [%] | activity at 25 µM (CYP3A4) [%] | Drug metabolism (Liver microsome [8]) | Retention_time (Liver microsome [9]) [min]
NCCc1c[nH]c2ccc(C(N)=O)cc12 |  |  |  |  |  | Active |  |  |  |  | 

Reference: ChEMBL document CHEMBL3769356, “Rational design in search for 5-phenylhydantoin selective 5-HT7R antagonists. Molecular modeling, synthesis and biological evaluation” (Eur J Med Chem, 2016)
